Tests used:
DU-145 = experiment: Cytotoxicity against human DU-145 cells assessed as reduction in cell viability measured after 72 hrs by SRB assay; format: functional, cell-based; details: DU-145, 72 h
PC-3 [1] = experiment: Cytotoxicity against human PC-3 cells assessed as reduction in cell viability measured after 72 hrs by SRB assay; format: functional, cell-based; details: PC-3, 72 h
NCI-H460 [2] = experiment: Cytotoxicity against human NCI-H460 cells assessed as reduction in cell viability measured after 72 hrs by SRB assay; format: functional, cell-based; details: NCI-H460, 72 h
HCT-116 [3] = experiment: Cytotoxicity against human HCT-116 cells assessed as reduction in cell viability measured after 72 hrs by SRB assay; format: functional, cell-based; details: HCT-116, 72 h
UMUC3 = experiment: Cytotoxicity against human UMUC3 cells assessed as reduction in cell viability measured after 72 hrs by SRB assay; format: functional, cell-based; details: UMUC3, 72 h
PANC-1 [4] = experiment: Cytotoxicity against human PANC-1 cells assessed as reduction in cell viability measured after 72 hrs by SRB assay; format: functional, cell-based; details: PANC-1, 72 h
MIA PaCa-2 = experiment: Cytotoxicity against human MIA PaCa-2 cells assessed as reduction in cell viability measured after 72 hrs by SRB assay; format: functional, cell-based; details: MIA PaCa-2, 72 h
W256 = experiment: Antitumour activity against Walker 256 adenocarcinoma cells implanted in Wistar rat assessed as increase in animal survival rate by measuring T/C ratio at 20 mg/kg, ip qd for 3 days administered on day 3,4,5 after tumor cell transplantation; format: functional; details: time 3 day
NCI-H460 [5] = experiment: Antitumour activity against human NCI-H460 cells xenografted in Crl:Nu-Foxnl nu mouse assessed as inhibition of tumour growth at total effective dose of 60 mg/kg, iv measured on day 17; format: functional; details: 408 h, time 17 day, read-out: TGI
PANC-1 [6] = experiment: Antitumour activity against human PANC-1 cells xenografted in Crl:Nu-Foxnl nu mouse assessed as inhibition of tumour growth at total effective dose of 30 mg/kg, iv measured on day 45; format: functional; details: PANC-1, iv, 1080 h, time 45 day, read-out: TGI
PANC-1 [7] = experiment: Antitumour activity against human PANC-1 cells xenografted in Crl:Nu-Foxnl nu mouse assessed as inhibition of tumour growth at total effective dose of 10 mg/kg, iv measured on day 37; format: functional; details: PANC-1, iv, 888 h, time 37 day, read-out: TGI
PC-3 [8] = experiment: Antitumour activity against human PC-3 cells xenografted in Crl:Nu-Foxnl nu mouse assessed as inhibition of tumour growth at total effective dose of 8 mg/kg, iv measured on day 39; format: functional; details: PC-3, iv, 936 h, time 39 day, read-out: TGI
Quadruplex DNA [9] = experiment: Stabilization of 5'-FAM/3'-TAMRA labeled c-Myc promoter G4 quadruplex DNA FPu18 (unknown origin) assessed as change in melting temperature at 10 microM measured after 15 mins by FRET assay; format: nucleic-acid assay
Quadruplex DNA [10] = experiment: Stabilization of 5'-FAM/3'-TAMRA labeled telomeric G4 quadruplex DNA F21T (unknown origin) assessed as change in melting temperature at 10 microM measured after 15 mins by FRET assay; format: nucleic-acid assay
Quadruplex DNA [11] = experiment: Stabilization of 5'-FAM/3'-TAMRA labeled K-Ras G4 quadruplex DNA (unknown origin) assessed as change in melting temperature at 10 microM measured after 15 mins by FRET assay; format: nucleic-acid assay
[12] = Stabilization of ds 5'-FAM-d(TATAGCTATA-HEG-TATAGCTATA)-TAMRA-3' (unknown origin) assessed as change in melting temperature at 10 microM measured after 15 mins by FRET assay; details: Homo sapiens
HT-29 = experiment: Cytotoxicity against human HT-29 cells assessed as reduction in cell viability measured after 72 hrs by SRB assay; format: functional, cell-based; details: HT-29, 72 h
MCF7 = experiment: Cytotoxicity against human MCF7 cells assessed as reduction in cell viability measured after 72 hrs by SRB assay; format: functional, cell-based; details: MCF7, 72 h
MDA-MB-231 [13] = experiment: Cytotoxicity against human MDA-MB-231 cells assessed as reduction in cell viability measured after 72 hrs by SRB assay; format: functional, cell-based; details: MDA-MB-231, 72 h
BXPC-3 = experiment: Cytotoxicity against human BXPC-3 cells assessed as reduction in cell viability measured after 72 hrs by SRB assay; format: functional, cell-based; details: BXPC-3, 72 h
ASPC1 = experiment: Cytotoxicity against human ASPC1 cells assessed as reduction in cell viability measured after 72 hrs by SRB assay; format: functional, cell-based; details: ASPC1, 72 h
Capan-2 = experiment: Cytotoxicity against human Capan-2 cells assessed as reduction in cell viability measured after 72 hrs by SRB assay; format: functional, cell-based; details: Capan-2, 72 h
PANC-1 [14] = experiment: Antitumour activity against human PANC-1 cells xenografted in Crl:Nu-Foxnl nu mouse assessed as inhibition of tumour growth at total effective dose of 160 mg/kg, iv measured on day 26; format: functional; details: PANC-1, iv, 624 h, time 26 day, read-out: TGI
HCT-116 [15] = experiment: Antitumour activity against human HCT-116 cells xenografted in Crl:Nu-Foxnl nu mouse assessed as inhibition of tumour growth at total effective dose of 120 mg/kg, iv measured on day 15; format: functional; details: HCT-116, iv, 360 h, time 15 day, read-out: TGI
MDA-MB-231 [16] = experiment: Antitumour activity against human MDA-MB-231 cells xenografted in Crl:Nu-Foxnl nu mouse assessed as inhibition of tumour growth at total effective dose of 40 mg/kg, iv measured on day 39; format: functional; details: MDA-MB-231, iv, 936 h, time 39 day, read-out: TGI

Structure (SMILES) | IC50 (DU-145) [nM] | IC50 (PC-3 [1]) [nM] | IC50 (NCI-H460 [2]) [nM] | IC50 (HCT-116 [3]) [nM] | IC50 (UMUC3) [nM] | IC50 (PANC-1 [4]) [nM] | IC50 (MIA PaCa-2) [nM] | ΔTm (Quadruplex DNA [9]) [°C] | ΔTm (Quadruplex DNA [10]) [°C] | ΔTm (Quadruplex DNA [11]) [°C] | ΔTm [12] [°C] | further results
Cc1ccc([N+](=O)[O-])c2c(NCCCN3CCN(CCCNc4ccc([N+](=O)[O-])c5[nH]c6ccccc6c(=O)c45)CC3)c3ccccc3nc12 | 41 | 362 | 40 | 83 | 63 | 130 | 108 | 19.4 | 8.7 | 21.6 | 2.6 | T/C (W256): 550%; inhibition in vivo at 60 mg/kg (NCI-H460 [5]): 24%; inhibition in vivo at 30 mg/kg (PANC-1 [6]): 72%; inhibition in vivo at 10 mg/kg (PANC-1 [7]): 27%; inhibition in vivo at 8 mg/kg (PC-3 [8]): 30%
Cc1ccc([N+](=O)[O-])c2c(NCCCN3CCN(CCCNc4ccc5ncn6c7ccc(O)cc7c(=O)c4c56)CC3)c3ccccc3nc12 | 67 | 130 | 74 | 51 | 35 | 42 | 38 | 21.3 | 16.4 | 18.8 | 4.4 | IC50 (HT-29): 237 nM; IC50 (MCF7): 244 nM; IC50 (MDA-MB-231 [13]): 17 nM; IC50 (BXPC-3): 354 nM; IC50 (ASPC1): 343 nM; IC50 (Capan-2): 68 nM; inhibition in vivo at 160 mg/kg (PANC-1 [14]): 61%; inhibition in vivo at 120 mg/kg (HCT-116 [15]): 4%; inhibition in vivo at 40 mg/kg (MDA-MB-231 [16]): 12%

Source: ChEMBL document CHEMBL4765407, “Design, synthesis and high antitumor potential of new unsymmetrical bisacridine derivatives towards human solid tumors, specifically pancreatic cancers and their unique ability to stabilize DNA G-quadruplexes” (Eur J Med Chem, 2020)
